Measurements reported in ChEMBL document CHEMBL6114998, “Design, Synthesis, and Pharmacological Evaluation of Quinazoline and Quinoline Derivatives as Potent ENPP1 Inhibitors for Cancer Immunotherapy” (J Med Chem, 2025).
Active and inactive are the calls of the source. No cut-off for these calls is given here.

Tests used:
[1] = molecular target: T1, Ectonucleotide pyrophosphatase/phosphodiesterase family member 1 (Homo sapiens, UniProt P22413); assay: Inhibition of recombinant human ENPP1 transfected in HEK293T cells using cGAMP as substrate at pH 7.5 measured after 3.5 hrs by luminescence based AMP-glo assay; type: cell-based
T1 sequence (P22413 whole entry): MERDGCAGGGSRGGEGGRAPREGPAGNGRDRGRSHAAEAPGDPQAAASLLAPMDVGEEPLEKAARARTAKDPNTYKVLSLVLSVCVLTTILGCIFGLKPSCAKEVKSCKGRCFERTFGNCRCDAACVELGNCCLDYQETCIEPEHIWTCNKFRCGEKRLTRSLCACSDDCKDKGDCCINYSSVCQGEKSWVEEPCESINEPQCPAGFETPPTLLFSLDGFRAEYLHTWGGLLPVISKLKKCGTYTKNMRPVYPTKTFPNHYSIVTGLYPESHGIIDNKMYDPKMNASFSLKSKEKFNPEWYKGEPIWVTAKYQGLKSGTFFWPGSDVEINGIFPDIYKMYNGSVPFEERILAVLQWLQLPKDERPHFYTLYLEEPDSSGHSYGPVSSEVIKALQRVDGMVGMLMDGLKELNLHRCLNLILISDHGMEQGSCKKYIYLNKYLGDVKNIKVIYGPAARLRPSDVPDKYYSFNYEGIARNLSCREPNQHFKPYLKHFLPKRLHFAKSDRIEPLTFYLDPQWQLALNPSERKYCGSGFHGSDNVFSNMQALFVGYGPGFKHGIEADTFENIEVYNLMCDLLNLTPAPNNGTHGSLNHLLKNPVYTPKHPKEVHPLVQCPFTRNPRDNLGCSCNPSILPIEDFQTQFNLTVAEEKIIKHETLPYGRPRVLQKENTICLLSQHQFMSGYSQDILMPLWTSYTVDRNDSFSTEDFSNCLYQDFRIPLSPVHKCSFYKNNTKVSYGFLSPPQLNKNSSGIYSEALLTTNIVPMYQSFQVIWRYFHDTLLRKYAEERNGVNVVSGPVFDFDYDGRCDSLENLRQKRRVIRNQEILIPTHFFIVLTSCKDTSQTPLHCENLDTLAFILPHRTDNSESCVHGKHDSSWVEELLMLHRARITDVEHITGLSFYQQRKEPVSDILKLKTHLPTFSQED

[2] = molecular target: T1, Ectonucleotide pyrophosphatase/phosphodiesterase family member 1; assay: Inhibition of ENPP1 in human MDA-MB-231 cells using p-NPh-5TMP as substrate at pH 9.5 measured after 60 mins; type: cell-based
THP-1 = assay: Activation of STING signalling pathway in human THP-1 cells assessed as increase in IFNB1 expression at 10 to 1000 nM measured after 18 hrs in presence of cGAMP by qPCR analysis; type: cell-based; details: filed as activator, dose 10-1000 nM
[3] = molecular target: Voltage-gated inwardly rectifying potassium channel KCNH2 (Homo sapiens, UniProt Q12809); assay: Inhibition of hERG expressed in CHO cells by QPatch automated patch-clamp assay; type: toxicity, cell-based
Chain of Voltage-gated inwardly rectifying potassium channel KCNH2 (Q12809 whole entry): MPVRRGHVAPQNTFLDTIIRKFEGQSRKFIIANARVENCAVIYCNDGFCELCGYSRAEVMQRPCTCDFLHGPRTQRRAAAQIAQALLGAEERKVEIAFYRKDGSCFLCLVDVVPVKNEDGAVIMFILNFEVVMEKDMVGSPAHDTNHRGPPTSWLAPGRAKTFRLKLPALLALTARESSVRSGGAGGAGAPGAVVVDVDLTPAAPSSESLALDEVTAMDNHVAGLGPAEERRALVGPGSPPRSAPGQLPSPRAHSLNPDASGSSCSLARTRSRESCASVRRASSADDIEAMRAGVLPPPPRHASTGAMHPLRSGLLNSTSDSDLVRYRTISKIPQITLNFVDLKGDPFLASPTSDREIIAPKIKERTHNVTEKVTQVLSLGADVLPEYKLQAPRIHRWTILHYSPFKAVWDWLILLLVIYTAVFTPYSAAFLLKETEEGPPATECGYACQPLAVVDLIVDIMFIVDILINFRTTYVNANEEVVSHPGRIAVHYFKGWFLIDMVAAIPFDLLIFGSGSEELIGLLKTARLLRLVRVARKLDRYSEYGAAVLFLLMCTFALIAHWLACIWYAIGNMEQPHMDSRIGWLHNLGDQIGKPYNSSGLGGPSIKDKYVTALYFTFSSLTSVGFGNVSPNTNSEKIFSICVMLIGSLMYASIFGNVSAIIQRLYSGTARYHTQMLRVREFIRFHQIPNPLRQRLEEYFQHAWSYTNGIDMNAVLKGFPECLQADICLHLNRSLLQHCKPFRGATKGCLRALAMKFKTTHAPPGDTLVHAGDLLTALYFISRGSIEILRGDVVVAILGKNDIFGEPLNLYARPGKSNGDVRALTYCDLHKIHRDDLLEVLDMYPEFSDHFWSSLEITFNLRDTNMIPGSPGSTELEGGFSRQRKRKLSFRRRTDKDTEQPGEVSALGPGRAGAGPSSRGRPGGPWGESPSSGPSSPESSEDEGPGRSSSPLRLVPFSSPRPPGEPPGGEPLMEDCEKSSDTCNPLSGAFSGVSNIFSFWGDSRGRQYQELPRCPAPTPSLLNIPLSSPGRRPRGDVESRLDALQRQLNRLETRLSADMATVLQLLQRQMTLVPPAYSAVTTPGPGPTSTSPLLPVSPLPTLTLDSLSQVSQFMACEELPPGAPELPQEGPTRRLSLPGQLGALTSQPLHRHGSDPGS

[4] = Apparent permeability across basal to apical side in human Caco-2 cells at 10 uM by LC-MS/MS analysis; type: ADME, cell-based
THP1-Dual [5] = assay: Cytotoxicity against human THP1-Dual cells assessed as effect on cell viability at 10 to 1000 nM pretreated with compound in serum-free medium for 36 hrs in presence of cGAMP followed by replacement with condition medium and measured after 24 hrs by celltiter-glo assay; type: functional, cell-based; details: dose 10-1000 nM, time 60.0 hrs
[6] = Toxicity in female BALB/c mouse allografted with mouse CT26 cells assessed as change in body weight at 200 mg/kg QD, po measured every 2 days for 12 days; type: organism-based; details: in vivo, 288 h, time 12 day
CT26 = assay: Antitumor activity against mouse CT26 cells allografted in female BALB/c mouse assessed as tumor growth inhibition at 200 mg/kg QD, po measured every 2 days for 12 days relative to control; type: functional; details: CT26, 288 h, time 12 day, read-out: TGI
[7] = molecular target: T1, Ectonucleotide pyrophosphatase/phosphodiesterase family member 1; assay: Inhibition of ENPP1 in human MDA-MB-231 cells using p-NPh-5TMP as substrate at pH 8.5 measured after 60 mins; type: cell-based
[8] = Cmax in Sprague-Dawley rat at 10 mg/kg, iv measured upto 24 hrs by LC-MS/MS analysis; type: ADME, organism-based; details: in vivo
[9] = Clearance in Sprague-Dawley rat at 10 mg/kg, iv measured upto 24 hrs by LC-MS/MS analysis; type: ADME, organism-based; details: in vivo
THP1-Dual KO-STING [10] = assay: Cytotoxicity against human THP1-Dual KO-STING cells assessed as effect on cell viability at 1 uM followed by addition of conditioned medium containing 36 hrs compound pretreated human MDA-MB-231 cells measured after 24 hrs by celltiter-glo assay; type: functional, cell-based; details: time 60.0 hrs
THP1-Dual [11] = assay: Activation of STING-mediated immune response in human THP1-Dual cells assessed as increase in cGAMP-induced ISRE activation by measuring type 1 IFN response at 10 to 1000 nM preincubated in conditioned medium containing 36 hrs compound treated with human MDA-MB-231 cells measured after 24 hrs by quanti-luc luciferase assay; type: cell-based; details: filed as activator, dose 10-1000 nM, time 60.0 hrs
[12] = Apparent permeability across apical to basal side in human Caco-2 cells at 10 uM by LC-MS/MS analysis; type: ADME, cell-based
[13] = AUC(0 to t) in Sprague-Dawley rat at 10 mg/kg, iv measured upto 24 hrs by LC-MS/MS analysis; type: ADME, organism-based; details: in vivo
[14] = MRT (0 to t) in Sprague-Dawley rat at 10 mg/kg, iv measured upto 24 hrs by LC-MS/MS analysis; type: ADME, organism-based; details: in vivo
[15] = Efflux ratio of apparent permeability from basolateral to apical side over apical to basolateral side in human Caco-2 cells at 10 uM by LC-MS/MS analysis; type: ADME, cell-based
[16] = Half life in Sprague-Dawley rat at 10 mg/kg, iv measured upto 24 hrs by LC-MS/MS analysis; type: ADME, organism-based; details: in vivo
THP1-Dual [17] = assay: Activation of STING-mediated immune response in human THP1-Dual cells assessed as increase in cGAMP-induced ISRE activation preincubated in conditioned medium containing 36 hrs compound treated with human MDA-MB-231 cells measured after 24 hrs by quanti-luc luciferase assay; type: cell-based; details: filed as activator, time 60.0 hrs
[18] = molecular target: T1, Ectonucleotide pyrophosphatase/phosphodiesterase family member 1; assay: Binding affinity to human ENPP1 assessed as inhibition constant
THP1-Dual KO-STING [19] = assay: Activation of STING-mediated immune response in human THP1-Dual KO-STING cells assessed as cGAMP-induced ISRE activation at 1 uM preincubated with conditioned medium containing 36 hrs compound treated with human MDA-MB-231 cells and measured after 24 hrs by quanti-luc luciferase assay; type: cell-based; details: filed as activator, time 60.0 hrs

Structure (SMILES) | IC50 [1] [nM] | IC50 [2] [nM] | further results
COc1cccc2c(NC34CC(NS(N)(=O)=O)(C3)C4)c(C#N)cnc12 | 6.22 | 10.3 | 
COc1cccc2c(N3CCC(C#N)(CNS(N)(=O)=O)CC3)c(C#N)cnc12 | 6.65 | 0.97 | Activity (THP-1): Active; IC50 [3]: > 40000 nM
Cn1nc(Cc2ccc(NS(N)(=O)=O)cc2)c2ccccc2c1=O | 1380 | 556 | Papp B→A at 10 µM [4]: 23.2 ×10⁻⁶ cm/s; Activity (THP1-Dual [5]): Active; Activity [6]: Non-toxic; inhibition in vivo at 200 mg/kg (CT26): 39.4%; IC50 [7]: 4560 nM; Cmax [8]: 11400 ng/mL; clearance [9]: 6.18 mL/min/kg; Activity (THP1-Dual KO-STING [10]): Active; Activity (THP1-Dual [11]): Active; Papp A→B at 10 µM [12]: 6.06 ×10⁻⁶ cm/s; AUC(0-t) at 24 h [13]: 27900 ng·h/mL; MRT last at 24 h [14]: 2.92 h; efflux ratio at 10 µM [15]: 3.82; half-life [16]: 3.24 h
COc1cccc2c(N3CCC4(CC3)CC(NS(N)(=O)=O)CO4)c(C#N)cnc12 (stereo unspecified) | 572 | > 1000 | 
COc1cccc2c(N3CCC4(CC3)CC4NS(N)(=O)=O)c(C#N)cnc12 (stereo unspecified) | 23.7 | 6.2 | 
COc1cccc2c(N3CCC4(CC3)CC4NS(N)(=O)=O)ncnc12 (stereo unspecified) | 95.3 | > 1000 | 
COc1cccc2c(N3CCC4(CC3)CC(NS(N)(=O)=O)C4)ncnc12 | 455 | > 1000 | 
COc1cccc2c(N3CCC(F)(CNS(N)(=O)=O)CC3)ncnc12 | 14.9 | 2.88 | 
COc1cccc2c(N3CCC(C)(CNS(N)(=O)=O)CC3)c(C#N)cnc12 | 3.84 | 1.07 | Activity (THP-1): Active; IC50 [3]: > 40000 nM
COc1cccc2c(NC3CCC(NS(N)(=O)=O)CC3)ncnc12 (stereo unspecified) | 156 | > 1000 | 
COc1cccc2c(N[C@H]3CC[C@H](CNS(N)(=O)=O)CC3)ncnc12 | > 1000 | > 1000 | 
COc1cccc2c(N[C@H]3CC[C@H](NS(N)(=O)=O)CC3)ncnc12 | 370 | > 1000 | 
COc1cccc2c(N3CCC(CCP(=O)(O)O)CC3)ncnc12 | 0.5 | 50.1 | Activity (THP1-Dual [17]): Dose-dependent-effect; Papp B→A at 10 µM [4]: 0.394 ×10⁻⁶ cm/s; Ki [18]: < 2 nM; Activity (THP1-Dual [5]): Active; Activity (THP-1): Active; IC50 [7]: 15 nM; Cmax [8]: 4800 ng/mL; clearance [9]: 94 mL/min/kg; Activity (THP1-Dual KO-STING [10]): Active; Papp A→B at 10 µM [12]: 0.118 ×10⁻⁶ cm/s; AUC(0-t) at 24 h [13]: 1780 ng·h/mL; Activity (THP1-Dual KO-STING [19]): Active; MRT last at 24 h [14]: 0.39 h; efflux ratio at 10 µM [15]: 3.34; half-life [16]: 0.878 h
COc1cccc2c(NC3CCC(NS(N)(=O)=O)CC3)c(C#N)cnc12 (stereo unspecified) | 40.3 | 8.62 | 
COc1cccc2c(NC3CC(NS(N)(=O)=O)C3)ncnc12 (stereo unspecified) | 438 | > 1000 | 
COc1cccc2c(N3CCC(O)(CCNS(N)(=O)=O)CC3)ncnc12 | 305 | 154 | 

Continued, in another order:

IC50 [1] [nM] | IC50 [2] [nM] | Structure (SMILES) | further results
95.1 | > 1000 | COc1cccc2c(NC34CC(NS(N)(=O)=O)(C3)C4)ncnc12 | 
27.6 | 42 | COc1cccc2c(N[C@H]3CC[C@@H](NS(N)(=O)=O)CC3)ncnc12 | 
53.7 | 16.6 | COc1cccc2c(NC3CC(NS(N)(=O)=O)C3)c(C#N)cnc12 (stereo unspecified) | 
55.5 | 23.2 | COc1cccc2c(N3CC4CC3CC4CNS(N)(=O)=O)c(C#N)cnc12 (stereo unspecified) | 
27.7 | 6.78 | COc1cccc2c(N3CCC4(CC(NS(N)(=O)=O)C4)C3)c(C#N)cnc12 (stereo unspecified) | 
14.9 | 5.06 | COc1cccc2c(N3CCC4(CC(NS(N)(=O)=O)C4)C3)ncnc12 (stereo unspecified) | 
11.6 | 1.84 | COc1cccc2c(N3CCC(O)(CNS(N)(=O)=O)CC3)c(C#N)cnc12 | Activity (THP-1): Active
18 | 10.7 | COc1cccc2c(N[C@H]3CC[C@@H](NS(N)(=O)=O)CC3)c(C#N)cnc12 | 
10.2 | 4.41 | COc1cccc2c(N3CCC(C)(CNS(N)(=O)=O)CC3)ncnc12 | 
373 | > 1000 | COc1cccc2c(N3CCC4(CC3)CC(NS(N)(=O)=O)C4)c(C#N)cnc12 | 
3.28 | 1.23 | COc1cccc2c(N3CCC(F)(CNS(N)(=O)=O)CC3)c(C#N)cnc12 | Activity (THP-1): Active
> 1000 | > 1000 | COc1cccc2c(N[C@H]3CC[C@H](CNS(N)(=O)=O)CC3)c(C#N)cnc12 | 
